What is called MIC is the least concentration at which growth counts as inhibited. The low end stands for inhibition by little substance, the high end for a need for much substance.

Values after ≈ are worked out from the molar mass of the structure shown. Read-outs that look alike come from different tables or passages of the source. Where a SMILES comes first, the peptide text is derived from it.

One data set concerns P. gingivalis W50. The class given is cell-based, Porphyromonas gingivalis.
In another data set the test system is P. aeruginosa PAO1. In kind it is cell-based, Pseudomonas aeruginosa.
A further data set concerns E. coli DHα5. In kind it is cell-based, Escherichia coli.
Data set [1] has as its target T1, LPS-binding protein (LBP) (Homo sapiens, UniProt P18428).
T1 sequence (P18428 26-481): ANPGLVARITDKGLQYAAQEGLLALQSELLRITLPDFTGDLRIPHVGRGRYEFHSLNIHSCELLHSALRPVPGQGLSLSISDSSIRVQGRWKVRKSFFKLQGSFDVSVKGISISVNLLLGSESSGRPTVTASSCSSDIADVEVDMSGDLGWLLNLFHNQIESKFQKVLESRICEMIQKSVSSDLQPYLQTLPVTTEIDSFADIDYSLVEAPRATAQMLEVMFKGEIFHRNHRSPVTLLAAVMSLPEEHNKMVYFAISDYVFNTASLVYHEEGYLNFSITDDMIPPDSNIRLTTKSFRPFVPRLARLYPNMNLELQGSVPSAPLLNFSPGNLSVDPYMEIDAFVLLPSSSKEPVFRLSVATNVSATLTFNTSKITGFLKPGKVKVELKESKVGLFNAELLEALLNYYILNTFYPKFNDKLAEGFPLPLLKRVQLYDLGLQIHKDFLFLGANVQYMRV
Description: LPS binding to LPS-binding protein. To be noted: LPS + 180–200 μg/ml GL13K; mean ± SEM, N=3.

Data set [2] has as its system red blood cells.
Data set [3] relates to red blood cells. To be noted: cited from earlier work.
In data set [4] the test system is P. gingivalis (53977, DPG3, W50). The data set can be described thus: Bacterial killing assay. In kind it is cell-based, Porphyromonas gingivalis. As to conditions: three strains, 200 μg/ml peptide, 2 ½ hours, 35°C, CFU.
The next data set deals with E. coli. In kind it is cell-based, Escherichia coli. As to conditions: 50% saliva (45% in legend) in PBS, 2 hours, 35°C.

For `CC[C@H](C)[C@H](NC(=O)[C@H](CCC(N)=O)NC(=O)CN)C(=O)N[C@H](C(=O)N[C@@H](CC(N)=O)C(=O)N[C@@H](CC(C)C)C(=O)N[C@@H](CCCCN)C(N)=O)[C@@H](C)CC` [GK7NH2] (H-GQIINLK-NH2), the MIC with P. gingivalis W50 (W50) was over 167 µg/mL; with P. aeruginosa PAO1, over 167 µg/mL; in the data set on E. coli DHα5 it was over 200 µg/mL. In the data set with E. coli DHα5, the “MIC, 50% saliva” value was over 167 µg/mL.
Take `CC[C@H](C)[C@H](NC(=O)[C@H](CCCCN)NC(=O)CN)C(=O)N[C@H](C(=O)N[C@@H](CCCCN)C(=O)N[C@@H](CC(C)C)C(=O)N[C@@H](CCCCN)C(=O)N[C@@H](C)C(=O)N[C@@H](CO)C(=O)N[C@@H](CC(C)C)C(=O)N[C@@H](CCCCN)C(=O)N[C@@H](CC(C)C)C(=O)N[C@@H](CC(C)C)C(N)=O)[C@@H](C)CC` [GL13K] (H-GKIIKLKASLKLL-NH2): in data set [1], the “LBP binding of LPS relative to LPS alone (100%)” value is 45.3%±9.7% (N=3). The “Hemagglutination” value in the data set with red blood cells [2] is “did not cause hemagglutination”. Besides, in the data set on E. coli DHα5, the minimal inhibitory concentration (MIC) is 5 µg/mL (≈ 3.51 µM) and the “MIC, 50% saliva” value is 50 µg/mL (≈ 35.1 µM).
Consider `CC[C@H](C)[C@H](NC(=O)[C@H](CCC(N)=O)NC(=O)CN)C(=O)N[C@H](C(=O)N[C@@H](CC(N)=O)C(=O)N[C@@H](CC(C)C)C(=O)N[C@@H](CCCCN)C(=O)N[C@@H](C)C(=O)N[C@@H](CO)C(=O)N[C@@H](CC(C)C)C(=O)N[C@@H](CC(=O)O)C(=O)N[C@@H](CC(C)C)C(=O)N[C@@H](CC(C)C)C(N)=O)[C@@H](C)CC` [GL13NH2] (H-GQIINLKASLDLL-NH2), for which the MIC was over 167 µg/mL in the data set on P. gingivalis W50 (W50), over 167 µg/mL with P. aeruginosa PAO1 and over 200 µg/mL against E. coli DHα5. The “Hemagglutination (caused, implied by contrast with GL13K)” value in the data set on red blood cells [3] was “hemagglutination”.
Turning to `CC[C@H](C)[C@H](NC(=O)[C@H](CCCCN)NC(=O)[C@H](CCC(=O)O)NC(=O)[C@H](CCCCN)NC(=O)[C@H](CO)NC(=O)[C@H](CCCCN)NC(=O)[C@H](CCCNC(=N)N)NC(=O)[C@H](Cc1ccccc1)NC(=O)[C@H](Cc1ccccc1)NC(=O)[C@H](CC(=O)O)NC(=O)CNC(=O)[C@H](CC(C)C)NC(=O)[C@@H](N)CC(C)C)C(=O)NCC(=O)N[C@@H](CCCCN)C(=O)N[C@@H](CCC(=O)O)C(=O)N[C@@H](Cc1ccccc1)C(=O)N[C@@H](CCCCN)C(=O)N[C@@H](CCCNC(=N)N)C(=O)N[C@H](C(=O)N[C@H](C(=O)N[C@@H](CCC(N)=O)C(=O)N[C@@H](CCCNC(=N)N)C(=O)N[C@H](C(=O)N[C@@H](CCCCN)C(=O)N[C@@H](CC(=O)O)C(=O)N[C@@H](Cc1ccccc1)C(=O)N[C@@H](CC(C)C)C(=O)N[C@@H](CCCNC(=N)N)C(=O)N[C@@H](CC(N)=O)C(=O)N[C@@H](CC(C)C)C(=O)N[C@H](C(=O)N1CCC[C@H]1C(=O)N[C@@H](CCCNC(=N)N)C(=O)N[C@H](C(=O)N[C@@H](CCC(=O)O)C(=O)N[C@@H](CO)C(=O)O)[C@@H](C)O)C(C)C)[C@@H](C)CC)C(C)C)[C@@H](C)CC` [LL-37], the “Bactericidal activity” value in data set [4] is “killed”. The MIC with P. gingivalis W50 (broth dilution in Pg broth, 10^4 CFU, OD 570 nm, seven independent experiments) amounted to 25 µg/mL (≈ 5.56 µM). The “Reduction of CFU / bactericidal activity in the presence of saliva” value in the data set on E. coli is given as “less than 90%”.
On to polymyxin B, for which the “Bactericidal activity” value in data set [4] was “ineffective”. Further, the “Reduction of CFU / bactericidal activity in the presence of saliva” value with E. coli is “retained bactericidal activity”.

(Values after publication PMC3356437 (Peptides, 2012).)
